Experimental data published in ChEMBL document CHEMBL1201862, “PubChem BioAssay data set” (2004).
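Five compound concentrations were applied to cells in 96-well plates for 48 hours; endpoints were derived by simple linear interpolation of the resulting dose-response curve. Abbreviation: GI50, concentration required for 50% inhibition of growth.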 Active and inactive are the calls of the source. Cut-off read from the data, not from the text of the source: active = GI50 up to about 1.1 µM and inactive = higher.

What was measured:
Test in all cases: growth of human tumour cells (NCI), 48 h
SR = test system: SR
HCT-116 = test system: HCT-116
SF-268 = test system: SF-268
RXF 393 = test system: RXF 393
KM-20L2 = test system: KM-20L2
U-251 = test system: U-251
LOX IMVI = test system: LOX IMVI
NCI-H460 = test system: NCI-H460
UO-31 = test system: UO-31
HOP-92 = test system: HOP-92
HCC 2998 = test system: HCC 2998
TK-10 = test system: TK-10
786-0 = test system: 786-0
M19-MEL = test system: M19-MEL
SK-OV-3 = test system: SK-OV-3
HT-29 = test system: HT-29
OVCAR-5 = test system: OVCAR-5
SN12C = test system: SN12C

Measured: GI50

COC1(OC)C2(Cl)C(Cl)=C(Cl)C1(Cl)C1C=CC=CC12 (stereo unspecified)
inactive: SR > 100 µM | HCT-116 43.5 µM | SF-268 > 100 µM | RXF 393 82.4 µM | KM-20L2 35.2 µM | U-251 > 100 µM | LOX IMVI 40.2 µM | NCI-H460 > 100 µM | UO-31 > 100 µM | HOP-92 40.2 µM | HCC 2998 65.2 µM | TK-10 > 100 µM | 786-0 > 100 µM | M19-MEL 44.9 µM | SK-OV-3 > 100 µM | HT-29 47.8 µM | OVCAR-5 > 100 µM | SN12C 75.3 µM

CCCCOCc1cc(CN2CCN(C)CC2)c(O)c2ncccc12
inactive: SR 3.49 µM | HCT-116 14.7 µM | SF-268 16.2 µM | RXF 393 36.6 µM | KM-20L2 26.4 µM | U-251 12.5 µM | LOX IMVI 22.1 µM | NCI-H460 7.46 µM | UO-31 9.66 µM | HOP-92 55.1 µM | HCC 2998 24.3 µM | TK-10 > 100 µM | 786-0 14.6 µM | M19-MEL 26.7 µM | SK-OV-3 67.6 µM | HT-29 31.6 µM | OVCAR-5 24.4 µM | SN12C 21.9 µM
